Structures are written as SMILES. Counter-ions that a name gives are not always drawn. Like-named read-outs stand apart in the source and are kept apart here.

In one test the test system is VisNR. As to conditions: Microsource.

Consider `NC(=O)c1ncn([C@@H]2O[C@H](CO)[C@@H](O)[C@H]2O)n1` [Ribavirin], for which the “activity annotation RpoH” value in the test with RpoH (Biomol FDA) is “Ribavirin (2; inactive RpoH Biomol FDA)”.

Consider `O=c1[nH]cc(F)c(=O)[nH]1` [5-Fluorouracil], for which the “activity annotation LdtR” value with LdtR (LOPAC) is 5-Fluorouracil (2; inactive LdtR LOPAC). As for `CC[C@H]1OC(=O)[C@H](C)[C@@H](O[C@H]2C[C@@](C)(OC)[C@@H](O)[C@H](C)O2)[C@H](C)[C@@H](O[C@@H]2O[C@H](C)C[C@H](N(C)C)[C@H]2O)[C@](C)(OC)C[C@@H](C)C(=O)[C@H](C)[C@@H](O)[C@]1(C)O` [CLARITHROMYCIN], the “activity annotation LdtR” value in the test with LdtR (NIHCC) was “CLARITHROMYCIN (2; inactive LdtR & RpoH NIHCC)”. In addition, the “activity annotation RpoH” value in the test with RpoH (NIHCC) is “CLARITHROMYCIN (2; inactive LdtR & RpoH NIHCC)”. On to `CCn1cc(C(=O)O)c(=O)c2cc(F)c(N3CCNC(C)C3)c(F)c21.Cl` (stereo not shown) [Lomefloxacin hydrochloride], for which the “activity annotation VisNR” value in the test with VisNR is “Lomefloxacin hydrochloride (2; inactive LOPAC & VisNR Microsource)”. For `CN1CCN(c2c(F)cc3c(=O)c(C(=O)O)cn4c3c2SCC4)CC1` [RUFLOXACIN HCl], the “activity annotation LdtR” value in the test with LdtR (NIHCC) was “RUFLOXACIN HCl (2; inactive LdtR & RpoH NIHCC)”. For the same compound, in the test on RpoH (NIHCC), the “activity annotation RpoH” value is “RUFLOXACIN HCl (2; inactive LdtR & RpoH NIHCC)”. `CCn1cc(C(=O)O)c(=O)c2cc(F)c(N3CCN(C)CC3)cc21.CS(=O)(=O)O` [PEFLOXACIN MESYLATE]: the “activity annotation, target not given” value (NIHCC) was “PEFLOXACIN MESYLATE (2; inactive NIHCC)”.

On to `O=C(O)CN(CCN(CC(=O)O)CC(=O)O)CCN(CC(=O)O)CC(=O)O` [Diethylenetriaminepentaacetic acid], for which, for the setting “LOPAC”, the “activity annotation, target not given” value is “Diethylenetriaminepentaacetic acid (1; inactive LOPAC)”. In the case of `CC(=O)NC[C@H]1CN(c2ccc(N3CCOCC3)c(F)c2)C(=O)O1` [LINEZOLIDE], the “activity annotation, target not given” value (NIHCC) is “LINEZOLIDE (1; inactive NIHCC)”.

The record behind these values is patent US20210144998A1 (priority 2019, published 2021).
